Results reported in ChEMBL document CHEMBL5223155, “Design, synthesis, and evaluation of pyrido.[3,4-b]pyrazin-2(1H)-one derivatives as potent FLT3 inhibitors” (Bioorg Med Chem, 2023).

Experiments:
[1] = target: T1, Receptor-type tyrosine-protein kinase FLT3 (Homo sapiens, UniProt P36888)
T1 sequence (P36888 whole entry): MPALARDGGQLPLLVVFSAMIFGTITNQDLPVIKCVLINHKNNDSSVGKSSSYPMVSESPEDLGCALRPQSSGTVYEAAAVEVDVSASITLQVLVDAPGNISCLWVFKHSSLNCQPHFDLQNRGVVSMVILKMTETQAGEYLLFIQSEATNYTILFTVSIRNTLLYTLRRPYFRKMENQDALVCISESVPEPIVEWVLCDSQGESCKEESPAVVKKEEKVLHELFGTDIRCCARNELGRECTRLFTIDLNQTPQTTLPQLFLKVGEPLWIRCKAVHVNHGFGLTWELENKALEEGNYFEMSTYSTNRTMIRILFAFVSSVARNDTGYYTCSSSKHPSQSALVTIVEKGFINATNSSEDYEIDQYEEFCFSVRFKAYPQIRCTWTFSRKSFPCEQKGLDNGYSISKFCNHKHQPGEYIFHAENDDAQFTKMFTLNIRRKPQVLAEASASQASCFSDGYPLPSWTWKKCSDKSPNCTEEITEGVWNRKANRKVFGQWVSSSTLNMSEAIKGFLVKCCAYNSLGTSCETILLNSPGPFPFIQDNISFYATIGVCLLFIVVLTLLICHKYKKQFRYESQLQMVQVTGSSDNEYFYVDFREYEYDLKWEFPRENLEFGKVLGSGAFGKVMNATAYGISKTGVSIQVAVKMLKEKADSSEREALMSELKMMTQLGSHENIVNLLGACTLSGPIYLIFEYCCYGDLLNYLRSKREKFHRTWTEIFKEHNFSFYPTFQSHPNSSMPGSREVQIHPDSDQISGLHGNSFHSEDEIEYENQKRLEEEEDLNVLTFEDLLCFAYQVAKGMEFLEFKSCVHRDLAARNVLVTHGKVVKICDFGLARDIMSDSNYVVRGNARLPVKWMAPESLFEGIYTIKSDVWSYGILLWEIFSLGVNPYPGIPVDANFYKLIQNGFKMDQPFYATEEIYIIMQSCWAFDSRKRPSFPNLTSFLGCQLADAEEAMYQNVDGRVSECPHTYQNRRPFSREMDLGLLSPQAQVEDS
Description: Inhibition of human wild type FLT3 using TK peptide as substrate incubated for 1 hr in presence of ATP by HTRF assay

[2] = target: Receptor-type tyrosine-protein kinase FLT3 (Homo sapiens, UniProt P36888, D835Y)
Description: Inhibition of human FLT3 D835Y mutant using TK peptide as substrate incubated for 1 hr in presence of ATP by HTRF assay

[3] = tested on: MV4-11; experiment: cells; conditions: Homo sapiens, MV4-11, 72 h
Description: Antiproliferative activity against human MV4-11 cells assessed as inhibition of cell growth incubated for 72 hrs by MTS assay

[4] = tested on: MOLM-13; experiment: Antiproliferative activity against human MOLM-13 cells assessed as inhibition of cell growth incubated for 72 hrs by MTS assay; format: functional, cell-based; conditions: MOLM-13, 72 h
[5] = tested on: BaF3; experiment: cells; conditions: Mus musculus, BaF3, 72 h
Description: Antiproliferative activity against mouse BaF3 cells harboring FLT3-D835F mutant assessed as inhibition of cell growth incubated for 72 hrs by MTS assay

[6] = tested on: BaF3; experiment: cells; conditions: Mus musculus, BaF3, 72 h; remark: listed apart in the source
Description: Antiproliferative activity against mouse BaF3 cells harboring FLT3-D835V mutant assessed as inhibition of cell growth incubated for 72 hrs by MTS assay

[7] = tested on: BaF3; experiment: cells; conditions: Mus musculus, BaF3, 72 h; remark: listed apart in the source
Description: Antiproliferative activity against mouse BaF3 cells harboring FLT3-ITD mutant assessed as inhibition of cell growth incubated for 72 hrs by MTS assay

[8] = tested on: BaF3; experiment: cells; conditions: Mus musculus, BaF3, 72 h; remark: listed apart in the source
Description: Antiproliferative activity against mouse BaF3 cells harboring FLT3-F691L mutant assessed as inhibition of cell growth incubated for 72 hrs by MTS assay

[9] = tested on: BaF3; experiment: cells; conditions: Mus musculus, BaF3, 72 h; remark: listed apart in the source
Description: Antiproliferative activity against mouse BaF3 cells harboring FLT3-ITD/D835Y mutant assessed as inhibition of cell growth incubated for 72 hrs by MTS assay

Structure (SMILES) | IC50 [1] [µM] | IC50 [2] [µM] | IC50 [3] [µM] | IC50 [4] [µM] | IC50 [5] [µM] | IC50 [6] [µM] | IC50 [7] [µM] | IC50 [8] [µM] | IC50 [9] [µM]
CN1CCN(c2ccc(Nc3cc4c(cn3)ncc(=O)n4-c3ccc(CN)cc3)nc2)CC1 | 1.04 | 0.811 |  |  |  |  |  |  | 
Cc1cc(Nc2cc3c(cn2)ncc(=O)n3-c2ccc(N)cc2)ncc1N1CCC(N)CC1 | 0.072 | 0.042 | 0.052 | 0.651 |  |  |  |  | 
CN1CCN(c2ccc(Nc3ccc4ncc(=O)n(-c5ccc(N)cc5)c4n3)cc2)CC1 | 3.83 | 6.61 |  |  |  |  |  |  | 
CN1CCN(c2ccc(Nc3cc4c(cn3)ncc(=O)n4-c3ccc(N(C)C)cc3)nc2)CC1 | 0.747 | 0.633 |  |  |  |  |  |  | 
Cc1cc(Nc2cc3c(cn2)ncc(=O)n3-c2ccc(N)cc2)ncc1N1C[C@@H](C)N[C@@H](C)C1 | 0.085 | 0.033 | 0.024 | 0.191 | 0.689 | 0.07 | 0.681 | 0.257 | 0.169
Cc1cc(Nc2cc3c(cn2)ncc(=O)n3-c2ccc(N)cc2)ncc1N1CCN(S(C)(=O)=O)CC1 | 0.122 | 0.089 | 0.068 | 0.692 |  |  |  |  | 
CN1CCN(c2ccc(Nc3cc4c(cn3)ncc(=O)n4-c3ccc(NS(C)(=O)=O)cc3)nc2)CC1 | 0.856 | 0.685 |  |  |  |  |  |  | 
Cc1cc(Nc2cc3c(cn2)ncc(=O)n3-c2ccc(N)cc2)ncc1N1CCOCC1 | > 0.01 | 11.7 |  |  |  |  |  |  | 
Cc1cc(Nc2cc3c(cn2)ncc(=O)n3-c2ccc(N)cc2)ncc1N1CCN(C)CC1 | 0.05 | 0.041 | 0.03 | 0.254 |  |  |  |  | 
CC(=O)Nc1ccc(-n2c(=O)cnc3cnc(Nc4ccc(N5CCN(C)CC5)cn4)cc32)cc1 | 0.939 | 0.582 |  |  |  |  |  |  | 
Cc1cc(Nc2cc3c(cn2)ncc(=O)n3-c2ccc(N)cc2)ncc1N1CCN(C2CC2)CC1 | 0.103 | 0.038 | 0.036 | 0.366 |  |  |  |  | 
Cc1cc(Nc2cc3c(cn2)ncc(=O)n3-c2ccc(N)cc2)ncc1NC1CCN(C)CC1 | 0.44 | 0.343 |  |  |  |  |  |  | 
